Source: US20160108381A1, “DNA POLYMERASES AND MUTANTS THEREOF” (LIFE TECHNOLOGIES CORPORATION, priority 2001, published 2016)

How the values were obtained:
[1] = target: T1, Clostridium stercorarium DNA polymerase, N-terminal His6 tag (Cst-His), SEQ ID NO:14 (Thermoclostridium stercorarium, UniProt L7VMI6); experiment: Steady-state kinetics, DNA- and RNA-dependent polymerase activity
T1 sequence (L7VMI6 with tags, fused parts or gaps): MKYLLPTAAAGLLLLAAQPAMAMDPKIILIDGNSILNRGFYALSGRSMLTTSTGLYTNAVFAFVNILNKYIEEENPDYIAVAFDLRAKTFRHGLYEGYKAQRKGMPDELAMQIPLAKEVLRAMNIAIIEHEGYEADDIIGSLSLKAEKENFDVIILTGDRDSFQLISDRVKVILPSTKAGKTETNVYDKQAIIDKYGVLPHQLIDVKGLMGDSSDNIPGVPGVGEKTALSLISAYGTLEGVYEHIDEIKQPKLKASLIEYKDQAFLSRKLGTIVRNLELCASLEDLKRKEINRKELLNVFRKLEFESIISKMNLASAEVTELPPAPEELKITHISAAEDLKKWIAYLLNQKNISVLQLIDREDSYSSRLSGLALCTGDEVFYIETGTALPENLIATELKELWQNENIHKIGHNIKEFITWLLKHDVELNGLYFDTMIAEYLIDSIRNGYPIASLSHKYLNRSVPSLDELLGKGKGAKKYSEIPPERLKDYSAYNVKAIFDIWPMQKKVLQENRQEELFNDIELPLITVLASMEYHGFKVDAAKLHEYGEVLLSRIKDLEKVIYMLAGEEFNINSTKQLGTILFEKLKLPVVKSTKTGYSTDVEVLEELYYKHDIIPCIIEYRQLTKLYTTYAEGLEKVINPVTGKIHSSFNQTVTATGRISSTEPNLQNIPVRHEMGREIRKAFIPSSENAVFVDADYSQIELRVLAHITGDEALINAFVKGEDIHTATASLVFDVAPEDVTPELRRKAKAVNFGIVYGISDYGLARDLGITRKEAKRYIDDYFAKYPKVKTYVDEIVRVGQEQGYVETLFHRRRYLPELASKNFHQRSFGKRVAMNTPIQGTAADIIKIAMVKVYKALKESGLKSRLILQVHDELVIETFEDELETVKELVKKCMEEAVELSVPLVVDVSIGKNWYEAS
Text: (§1) Subcloning of genes for Cst and Cth DNA polymerases. In order to improve expression and simplify purification of Cst and Cth DNA polymerase, the genes were subcloned downstream of a T7 promoter and an amino-terminal His6 tag sequence was introduced using Gateway cloning technology (Invitrogen Corporation, Carlsbad, Calif.). The sequence of the DNA oligonucleotide used at the 5′ end of the Cst gene was: 5′-[…] ATAGAC 3′ (SEQ ID NO:37). The sequence of the DNA oligonucleotide used at the 5′ end of the Cth gene was: 5′-[…] […]-3′ (SEQ ID NO:38). The sequence of the DNA oligonucleotide used at the 3′ end of each gene was the same: 5′-[…] […] 3′ (SEQ ID NO:39). Purified pET26B plasmid DNA (Novagen Inc., Madison, Wis.) bearing the gene for Cst or Cth DNA polymerase was amplified by PCR utilizing the primers listed above and Platinum Taq HiFi DNA polymerase (Invitrogen Corporation, Carlsbad, Calif.). PCR products purified by agarose gel electrophoresis were cloned into Gateway vector pDON21 and transferred by recombination into vector pDEST17. […] Each final recombinant plasmid was transformed into the E. coli expression host BL21-AI (Invitrogen Corporation, Carlsbad, Calif.).
(§2) Purification of Cst-His and Cth-His DNA polymerases. E. coli cells (BL21AI) bearing the plasmid pDEST17 with the gene for Cst-His or Cth-His DNA polymerase were grown in 2.8-1 Fembach flasks in LB broth containing 50 μg/ml ampicillin at 37° C. After the culture reached an A590 of 1.0, expression of DNA polymerase was induced by the addition of 0.2% arabinose for 3 hr. Cells were harvested by centrifugation and stored at −70° C.
(§3) Steady-state kinetic measurements.
(§4) The assays were conducted in the presence of 1.5 mM MgCl2 at 55° C. for all enzymes except the Caldibacillus cellulovorans CompA.2 enzyme where 2 mM MgCl2 and 45° C. were used.

[2] = target: T2, Clostridium thermosulfurogenes DNA polymerase, N-terminal His6 tag (Cth-His), SEQ ID NO:15 (Thermoanaerobacterium thermosulfurigenes, UniProt Q6X9R5); experiment: as above
T2 sequence (Q6X9R5 with tags, fused parts or gaps): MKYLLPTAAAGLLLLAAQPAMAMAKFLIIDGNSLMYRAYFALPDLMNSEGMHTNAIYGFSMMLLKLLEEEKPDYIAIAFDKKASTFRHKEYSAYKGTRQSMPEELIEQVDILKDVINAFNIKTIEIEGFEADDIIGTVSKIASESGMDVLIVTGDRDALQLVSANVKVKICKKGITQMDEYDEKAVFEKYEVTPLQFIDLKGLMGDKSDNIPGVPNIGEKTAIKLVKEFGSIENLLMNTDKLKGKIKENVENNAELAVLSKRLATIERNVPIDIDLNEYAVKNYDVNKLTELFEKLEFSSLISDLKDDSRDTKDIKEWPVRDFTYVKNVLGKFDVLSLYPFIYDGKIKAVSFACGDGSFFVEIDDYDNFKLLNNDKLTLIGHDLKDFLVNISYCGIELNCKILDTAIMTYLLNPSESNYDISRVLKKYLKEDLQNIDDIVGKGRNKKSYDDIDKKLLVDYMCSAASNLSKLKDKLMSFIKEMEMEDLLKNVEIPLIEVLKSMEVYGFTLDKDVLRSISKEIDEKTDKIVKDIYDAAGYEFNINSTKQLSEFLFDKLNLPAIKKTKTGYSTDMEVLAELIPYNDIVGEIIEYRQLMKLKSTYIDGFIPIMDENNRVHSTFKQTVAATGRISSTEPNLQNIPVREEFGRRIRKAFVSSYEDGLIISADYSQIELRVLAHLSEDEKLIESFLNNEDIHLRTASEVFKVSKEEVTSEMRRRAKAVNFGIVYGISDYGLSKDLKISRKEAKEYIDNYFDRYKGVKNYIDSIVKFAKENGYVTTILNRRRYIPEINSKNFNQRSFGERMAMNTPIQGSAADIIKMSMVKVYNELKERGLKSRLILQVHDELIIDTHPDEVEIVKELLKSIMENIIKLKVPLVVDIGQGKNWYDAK
Text: as §1, §2, §3, §4

[3] = Table 34, RNA template, 2 mM MgCl2, 45 °C per footnote
[4] = read-out: Km RNA (dTTP), Table 34, RNA template, 2 mM MgCl2, 45 °C per footnote

Cc1cn([C@H]2C[C@H](O)[C@@H](COP(=O)(O)OP(=O)(O)OP(=O)(O)O)O2)c(=O)[nH]c1=O [dTTP] was tested, and the “Kcat RNA (dTTP)” value [1, 3] was 19.2 s⁻¹, the “kCAT Ratio (RNA/DNA)” value ([1]; Table 40, dTTP, 55 °C) was 2.2 and the Km [1, 4] was 76 µM. For the same compound, the “Kcat RNA (dTTP)” value [2, 3] was 0.94 s⁻¹, the “kCAT Ratio (RNA/DNA)” value ([2]; Table 40, dTTP, 55 °C) was 0.57 and the Km [2, 4] was 68 µM.
